Where two headings read alike, the source gives them in different places.
How the values were obtained:
Kinetic solubility assay = format: physicochemical; conditions: 25 °C, kinetic from dmso stock, dose conc 200 μM, 25±2° C.
Description: Solubility of the compounds of the invention was assessed using kinetic solubility assay and compared to solubility of butenyl spinosyn. Stock solutions of spinosyn compounds were prepared in DMSO at mM concentration). 10 uL of the stock solutions were added into 490 of in K.S. 5.4 buffer of pH 5.4 (80 mM phosphoric acid, acetic acid, boric acid buffer, adjusted the pH to pH 5.4 with 1 N HCl and 1N NaOH) or K.S. 7.4 buffer with pH of 7.4 (80 mM phosphoric acid, acetic acid, boric acid buffer, adjusted the pH to pH 7.4 with 1 N HCl and 1N NaOH). The solutions were incubated with shaking at room […] temperature (25±2° C.) for 24 hours. 200 uL of each solution were then transferred into a new MultiScreen filter plate (Membrane of polycarbonate) and filtered by millipore vacuum manifold, and the filtrate was collected. The concentrtions of tested compounds in the filtered samples were analyzed by HPLC analysis calibrated by a standard curve generated by injection of 3 standard solutions of the relevant compound with concentrations of 1, 20, 200 μM.

[1] = system: honey bees (Apis melifera carnica, Pollman 1879); experiment: Single dose acute oral toxicity test on adult worker honey bees; format: in vivo
Description: Toxicity of the compounds of this invention towards honey bees (Apis melifera carnica, Pollman 1879) was assessed in comparison with commercially available samples of spinosad (LGC (Dr. Ehrenstorfer); Product code: DRE-C16972830) and the naturally produced compound butenyl spinosyn alpha 1. Solutions of spinosyn compounds were prepared in 100 mM ammonium acetate, pH=5, and later diluted in 50% (500 g/L) sucrose solution in water to final concentrations. Two final concentrations were used for each compound, 7.76 μmol/L and 15.53 μmol/L.
Single dose acute oral toxicity tests were conducted on adult worker bees according to previously described standard methods (Medrzycki at el., (2013)). Each compound and condition were tested in two parallels. Briefly, each parallel experiment consisted of 5 cages with 20 honey bees per cage. […] After uptake of the solutions honey bees were supplied with standard 50% sucrose solution and observed at 24 h and 48 h and the number of dead and live bees was estimated.
Ammonium acetate solution with pH 5 was used as the negative control.

[2] = system: larvae of Ostrinia nubilialis (development stage L1); experiment: Insecticide efficacy, corn leaf dip, Henderson-Tilton method; format: in vivo; conditions: for % efficacy (Henderson-Tilton): Ostrinia, foliar
Description: Insecticide activities of the compounds of this invention were assessed in comparison with commercially available samples of spinosad (LGC (Dr. Ehrenstorfer); Product code: DRE-C16972830) and spinetoram (LGC (Dr. Ehrenstorfer); Product code: DRE-C16972770). Solutions of spinosyn compounds were prepared by adding 0.05% Tween 80, lowering pH to 5.95 and sonicating. Two concentrations of each compound were used, 0.1 μg/ml and 0.3 μg/mL, with each condition tested in four parallels.
Freshly collected corn leaves were dipped into the prepared solutions. After dipping leaves were left to dry at room temperature for 1 hour. Each dry leaf was then infested with 4 larvae of Ostrinia nubilialis (development stage L1), and the experimental device was incubated at 21° C.-23° C. for 24 h in order to optimize insect development. At three timings post infestation (1 day, 3 days and 6 days), the insecticide efficacy is evaluated from the number of living larvae using the Henderson-Tilton method. Untreated control was integrated for normalization and validation of larvae health.

[3] = Stability of J1A, J1B and J7 at different pH values (LC-MS); format: physicochemical
Description: Stability of compounds J1A, J1B and J7 was evaluated at different pH values. Differential stability/conversion to the active ingredient is expected to result in condition-specific activation and thereby to higher specificity towards target pests.
Stock solutions of the compounds were prepared at concentration of 0.1 mol/L. 10 μL of the stock solutions were transferred to 0.75 ml of the buffer solutions with pH values of 4, 5, 9 and 11. The resulting solutions were incubated for 10 minutes and 3 and 24 h. After specified times samples were analyzed using LC-MS. The compounds J1A, J1B, J7 and the active compound butenyl spinosyn were quantified. It is seen that the three compounds are converted to the active form preferably in alkaline conditions.

In the case of `CC/C=C/[C@H]1CCC[C@H](OC2CCC([N+](C)(C)COC(=O)C(C)(C)C)C(C)O2)[C@@H](C)C(=O)C2=C[C@@H]3[C@@H](C=C[C@@H]4C[C@@H](OC5OC(C)C(OC)C(OC)C5OC)C[C@@H]34)[C@@H]2CC(=O)O1` (some centres unmarked) [Compound J1A], the solubility kinetic at 24 h (Kinetic solubility assay; pH 5.4, aqueous buffer, K.S. 5.4 buffer, read-out: Kinetic Solubility pH = 5.4) is reported as 189 µM, the solubility kinetic at 24 h (Kinetic solubility assay; pH 7.4, aqueous buffer, K.S. 7.4 buffer, read-out: Kinetic Solubility pH = 7.4) is reported as 143 µM and the “% of surviving honey bees” value ([1]; single oral dose 0.078 nmol/bee, 24 h after application) is reported as 95%. The “% of surviving honey bees” value ([1]; single oral dose 0.078 nmol/bee, 48 h after application) was 92%, the “% of surviving honey bees” value ([1]; single oral dose 0.155 nmol/bee, 24 h after application) was 89% and the “% of surviving honey bees” value ([1]; single oral dose 0.155 nmol/bee, 48 h after application) was 75%. For the same molecule, the “insecticidal activity on Ostrinia nubilialis larvae (in words)” value ([2]; 0.1 and 0.3 μg/mL, leaf dip) was “extremely potent insecticidal activity”, the % efficacy (Henderson-Tilton) ([2]; 24 h, read-out: % Efficacy, dose 0.1 μg a.i./ml, 1 day post infestation) was 2% and the % efficacy (Henderson-Tilton) ([2]; 24 h, read-out: % Efficacy, dose 0.3 μg a.i./ml, 1 day post infestation) was 0%. The % efficacy (Henderson-Tilton) ([2]; 72 h, read-out: % Efficacy, dose 0.1 μg a.i./ml, 3 days post infestation) was 44%, the % efficacy (Henderson-Tilton) ([2]; 72 h, read-out: % Efficacy, dose 0.3 μg a.i./ml, 3 days post infestation) was 63% and the % efficacy (Henderson-Tilton) ([2]; 144 h, read-out: % Efficacy, dose 0.1 μg a.i./ml, 6 days post infestation) was 89%. For the same molecule, the % efficacy (Henderson-Tilton) ([2]; 144 h, read-out: % Efficacy, dose 0.3 μg a.i./ml, 6 days post infestation) was 100%, the “BuSPN Area % (active butenyl spinosyn released)” value (shortened to “BuSPN Area %”) ([3]; buffer pH 4, 0.16 h) was 0.0% and the “Compound (J1A/J1B/J7) Area % remaining” value ([3]; buffer pH 4, 0.16 h) was 5.7%. The “BuSPN Area %” value ([3]; buffer pH 4, 3 h) was 0.0%, the “Compound (J1A/J1B/J7) Area % remaining” value ([3]; buffer pH 4, 3 h) was 2.0% and the “BuSPN Area %” value ([3]; buffer pH 4, 24 h) was 0.0%. The “Compound (J1A/J1B/J7) Area % remaining” value ([3]; buffer pH 4, 24 h) was 0.1%, the “BuSPN Area %” value ([3]; buffer pH 5, 0.16 h) was 0.1% and the “Compound (J1A/J1B/J7) Area % remaining” value ([3]; buffer pH 5, 0.16 h) was 99.4%. The “BuSPN Area %” value ([3]; buffer pH 5, 3 h) was 0.1%, the “Compound (J1A/J1B/J7) Area % remaining” value ([3]; buffer pH 5, 3 h) was 99.3% and the “BuSPN Area %” value ([3]; buffer pH 5, 24 h) was 1.7%. For the same molecule, the “Compound (J1A/J1B/J7) Area % remaining” value ([3]; buffer pH 5, 24 h) was 97.4%, the “BuSPN Area %” value ([3]; buffer pH 9, 0.16 h) was 32.6% and the “Compound (J1A/J1B/J7) Area % remaining” value ([3]; buffer pH 9, 0.16 h) was 66.4%. The “BuSPN Area %” value ([3]; buffer pH 9, 3 h) was 71.8%, the “Compound (J1A/J1B/J7) Area % remaining” value ([3]; buffer pH 9, 3 h) was 26.6% and the “BuSPN Area %” value ([3]; buffer pH 9, 24 h) was 46.6%. For the same molecule, the “Compound (J1A/J1B/J7) Area % remaining” value ([3]; buffer pH 9, 24 h) was 0.0%, the “BuSPN Area %” value ([3]; buffer pH 11, 0.16 h) was 80.7% and the “Compound (J1A/J1B/J7) Area % remaining” value ([3]; buffer pH 11, 0.16 h) was 18.4%. For the same molecule, the “BuSPN Area %” value ([3]; buffer pH 11, 3 h) was 98.0% and the “Compound (J1A/J1B/J7) Area % remaining” value ([3]; buffer pH 11, 3 h) was 0.5%.

Reference: patent publication US20240209014A1, “NOVEL SPINOSYN PRODRUGS” (Acies Bio d.o.o., priority 2021, published 2024)
